The values that follow come from ChEMBL document CHEMBL1649521, “Influence of the cytochrome P450 2B6 genotype on population pharmacokinetics of efavirenz in human immunodeficiency virus patients” (Antimicrob Agents Chemother, 2009).

Data set [1] is described as follows: Apparent oral clearance in patient with HIV infection at 600 mg/kg, […] QD. Format: ADME, organism-based. On the set-up: dose 600 mg/kg, route oral. The settings on record: human, in vivo.
A short description of data set [2]: Apparent oral volume of distribution in patient with HIV infection at 600 mg/kg QD. Format: ADME, organism-based. Particulars: human, in vivo, read-out: Vc/F. Also on record: dose 600 mg/kg, route oral.

The CL/F is the apparent clearance, not corrected for the fraction that reaches the circulation. In the case of `O=C1Nc2ccc(Cl)cc2[C@@](C#CC2CC2)(C(F)(F)F)O1` [EFAVIRENZ], the CL/F in data set [1] is 154 mL/min. Moreover, the Vd/F in data set [2] amounted to 295 L.
